Like-named read-outs stand apart in the source and are kept apart here.
Experiments:
[1] = molecular target: T1, PRMT5 (Homo sapiens, UniProt O14744); assay: PRMT5 Cell Target Engagement (TE) Assay; type: cell-based; details: MCF-7 cells, treated for 3 days, symmetric dimethylation of arginine (SDMA) by high content imaging
T1 construct: seeded with 4000 MCF-7 cells in 30 μl media; endogenous in cells; host or cells: MCF-7 cells
Source text: PRMT5 Cell Target Engagement (TE) Assay
The PRMT5 TE assay is a biomarker assay for identifying compounds that inhibit symmetric dimethylation of arginine (SDMA) of PRMT5 substrates. The following substrates have been reported for PRMT5: histone H2A and H4 R3, Histone H3 R2, Histone H3 R8, spliceosome Sm proteins, ribosomal protein RPS10, p53, FEN1, nucleoplasmin, nucleolin, EGFR and EBNA. The assay focuses on detecting symmetrically dimethylated nuclear proteins using high content imaging technology. Detection of the expression of symmetrically dimethylated nuclear proteins is through a mixture of primary rabbit monoclonal antibodies to SDMA (CST 13222), which in turn recognized by an Alexafluor 488 dye-conjugated anti-rabbit IgG secondary antibody. The IN Cell Analyzer 2200 or Opera-Phenix measures nuclear Alexafluor 488 fluorescent dye intensity that is directly related to the level of expression of symmetrically dimethylated nuclear proteins at the single cell level. Nuclear AF488 dye intensities are compared to the mean value for DMSO treated cells (MIN) to report percent of inhibition for each compound-treated well.
In this assay, the cell potency (EC50) of each compound was determined from a ten point (1:3 serial dilution; top compound concentration of 10000 nM) titration curve using the following outlined procedure. Each well of a BD falcon collagen coated black/clear bottom 384-well plate was seeded with 4000 MCF-7 cells in 30 μl media and allowed to attach for 5 h. Media is ATCC-formulated Eagle's Minimum Essential Medium, Catalog No. 30-2003. To make the complete growth medium, the following components were added to the base medium: 0.01 mg/mL human recombinant insulin; fetal bovine serum to a final concentration of 10%. Additional 30 μl of media containing 2× compounds were added to each well. Cells were treated for 3 days in 37° C. CO2 incubator. On day 3, cells were fixed with Cytofix, permeabilized with 0.4% Triton-X-100/Cytofix, and washed with D-PBS without Ca/Mg. Cells were blocked with Licor Odessey blocking reagent for 1 h at room temperature, followed by incubation with anti-SDMA (1:1000) antibody at 4° C. overnight. 1° antibody was removed, followed by three washings with DPBS without Ca/Mg and 0.05% Tween20. Hoechst (5 μg/mL), Cell Mask deep stain (1:2000) and Alexa488-conjugated goat anti-rabbit IgG (2 μg/mL) was added for 1 h at room temperature. A final washing step (three washes) was performed before sealing plate for imaging on In Cell Analyzer 2200 or Opera-Phenix. Images from analyzer were uploaded to Columbus (at WP or BOS) for image analysis. IC50 values were determined by 4 parameters robust fit of percent fluorescence units vs. (Log10) compound concentrations.

[2] = molecular target: T2, PRMT5-MEP50 enzyme complex (Homo sapiens, UniProt O14744); assay: PRMT5-MEP50 Enzyme Methylation Assay (Version B); type: biochemical
T2 construct: Full-length (FL)-PRMT5-MEP50 enzyme complex (recombinant proteins from baculovirus-transfected Sf21 cells: FL-PRMT5; MW=73837 kDa and FL-MEP50; MW=38614); made in house; host or cells: baculovirus-transfected Sf21 cells
T2 sequence (O14744 whole entry): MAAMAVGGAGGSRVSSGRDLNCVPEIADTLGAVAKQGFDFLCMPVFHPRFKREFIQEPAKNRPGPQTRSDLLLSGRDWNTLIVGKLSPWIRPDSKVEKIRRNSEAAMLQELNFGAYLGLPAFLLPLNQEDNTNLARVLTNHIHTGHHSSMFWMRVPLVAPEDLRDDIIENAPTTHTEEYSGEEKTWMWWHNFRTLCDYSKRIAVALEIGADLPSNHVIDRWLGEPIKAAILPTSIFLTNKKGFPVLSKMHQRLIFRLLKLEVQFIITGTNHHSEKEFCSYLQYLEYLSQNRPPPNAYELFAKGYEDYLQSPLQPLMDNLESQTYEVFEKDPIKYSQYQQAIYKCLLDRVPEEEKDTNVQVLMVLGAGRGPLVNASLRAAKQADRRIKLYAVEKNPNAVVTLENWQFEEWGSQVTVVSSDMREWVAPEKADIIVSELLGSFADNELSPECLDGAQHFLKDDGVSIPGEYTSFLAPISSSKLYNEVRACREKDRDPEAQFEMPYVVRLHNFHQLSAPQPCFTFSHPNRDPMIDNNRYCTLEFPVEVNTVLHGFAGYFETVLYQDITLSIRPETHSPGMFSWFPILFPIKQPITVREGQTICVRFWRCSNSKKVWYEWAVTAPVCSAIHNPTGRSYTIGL
T2 sequence (Q9BQA1 whole entry partner): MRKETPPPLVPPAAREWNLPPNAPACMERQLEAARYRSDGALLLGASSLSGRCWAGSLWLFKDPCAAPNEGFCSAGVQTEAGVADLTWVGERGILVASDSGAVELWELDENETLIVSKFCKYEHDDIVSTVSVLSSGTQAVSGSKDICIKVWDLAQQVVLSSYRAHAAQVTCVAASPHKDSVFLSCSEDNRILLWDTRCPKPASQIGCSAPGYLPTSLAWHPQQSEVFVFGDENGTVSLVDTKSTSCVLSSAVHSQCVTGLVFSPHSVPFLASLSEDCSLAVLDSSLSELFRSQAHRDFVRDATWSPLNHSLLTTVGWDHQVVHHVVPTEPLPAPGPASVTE
Procedure: PRMT5-MEP50 Enzyme Methylation Assay (Version B)
PRMT5-MEP50 biochemical assay is a direct measurement of the methylation activity of the enzyme complex on a short peptide substrate derived from the N-terminus of H4 histone. Methylation experiment was performed with recombinant PRMT5-MEP50 protein complex. The assessment of inhibitory effect (EC50) of small molecules was measured by the effectiveness of the compounds to inhibit this reaction.
In this assay, the potency (EC50) of each compound was determined from a twenty-point (1:2 serial dilution; top compound concentration of 100000 nM) titration curve using the following outlined procedure. To each well of a white ProxiPlus 384 well-plate, 100 nL of compound (1% DMSO in final assay volume of 10 μL) was dispensed, followed by the addition of 8 μL of 1× assay buffer (50 mM Bicine pH 8.0, 1 mM DTT, 0.004% Tween20, 0.01% BSA) containing 0.625 nM of Full-length (FL)-PRMT5-MEP50 enzyme complex (recombinant proteins from baculovirus-transfected Sf21 cells: FL-PRMT5; MW=[…] and FL-MEP50; MW=38614). Plates were sealed and placed in a 37° C. humidified chamber for 30 minutes pre-incubation with compounds. Subsequently, each reaction was initiated by the addition of 2 μL 1× assay buffer containing 375 nM biotinylated H4R3 (MeI) peptide, and 75 μM S-(5′-Adenosyl)-L-Methionine Chloride (SAM). The final reaction in each well of 10 μL consists of 0.5 nM PRMT5-MEP50, 75 nM biotinylated-peptide, and 15 μM SAM. Methylation reactions were allowed to proceed for 150 minutes in a sealed plate at 37° C. Reactions were immediately quenched by the addition of 1 μL of 10% formic acid. Plates were then frozen and shipped to SAMDI™ Tech Inc. to determine the percent conversion from […]. Dose-response curves were generated by plotting percent effect (% product conversion; Y-axis) vs. Log 10 compound concentrations (X-axis). EC50 values were determined by non-linear regression according to models for either sigmoidal (4 parameters) or biphasic (7 parameters) dose-response curves.

[3] = first of two EC50s: 7 parameters biphasic model, read-out: Enzyme Methylation Assay Version B (EC50_1)
[4] = second of two EC50s: 7 parameters biphasic model, read-out: Enzyme Methylation Assay Version B (EC50_2)
[5] = only one EC50 shown: 4 parameters single site sigmoidal model, 30 min pre-incubation, read-out: Enzyme Methylation Assay Version B (EC50)

T1 sequence (O14744 whole entry): as the sequence (O14744 whole entry) above
T1 sequence (Q9BQA1 whole entry partner): as the sequence (Q9BQA1 whole entry partner) above

SMILES	EC50 [1]	EC50 [2, 3]	EC50 [2, 4]	EC50 [2, 5]
O=C(c1cn2c(n1)CCC(C(F)(F)F)C2)N1CC[C@H](N2CCc3ccccc3C2)[C@@H](O)C1 (single isomer, unassigned) [Example 82]	100 nM	~8 nM	6170 nM	–
CCOc1cc(C(=O)N2C3CCC2COC3)ccc1C(=O)N1CC[C@@H](N2CCc3ccccc3C2)[C@H](O)C1 [Example 34, (4-(3-oxa-8-azabicyclo[3.2.1]octane-8-carbonyl)-2-ethoxyphenyl)((3R,4R)-4-(3,4-dihydroisoquinolin-2(1H)-yl)-3-hydroxypiperidin-1-yl)methanone]	2220 nM	~38 nM	20600 nM	–
O=C(c1ccn(CC(F)(F)F)c(=O)c1)N1CC[C@@H](N2CCc3ccccc3C2)[C@H](O)C1 [Example 32, 4-((3R,4R)-4-(3,4-dihydroisoquinolin-2(1H)-yl)-3-hydroxypiperidine-1-carbonyl)-1-(2,2,2-trifluoroethyl)pyridin-2(1H)-one]	> 10000 nM	–	–	2160 nM
CC(=O)N1CCC(Nc2cc(C(=O)N3CCC(N4CCc5ccccc5C4)C(O)C3C)ccn2)CC1 (single isomer, unassigned) [Example 20, l-(4-((4-(4-(3,4-dihydroisoquinolin-2(1H)-yl)-3-hydroxy-2-methylpiperidine-1-carbonyl)pyridin-2-yl)amino)piperidin-1-yl)ethan-1-one]	12 nM	4.4 nM	1500 nM	–
CC1(C)OC(=O)Nc2cc(C(=O)N3CC[C@H](N4CCc5ccccc5C4)[C@@H](O)C3)ccc21 [Example 97, 7-((3S,4S)-4-(3,4-dihydroisoquinolin-2(1H)-yl)-3-hydroxypiperidine-1-carbonyl)-4,4-dimethyl-1,4-dihydro-2H-benzo[d][1,3]oxazin-2-one]	59 nM	5.4 nM	2850 nM	–
O=C(c1cc2n(n1)CCN(CC(F)(F)F)C2)N1CC[C@H](N2CCc3ccccc3C2)[C@@H](O)C1 [Example 50, ((3S,4S)-4-(3,4-dihydroisoquinolin-2(1H)-yl)-3-hydroxypiperidin-1-yl)(5-(2,2,2-trifluoroethyl)-4,5,6,7-tetrahydropyrazolo[1,5-a]pyrazin-2-yl)methanone]	4260 nM	~76 nM	33500 nM	–
O=C(c1ccc(-c2ncnn2C2CC2)cc1)N1CC[C@@H](N2CCc3ccccc3C2)[C@H](O)C1 [Example 61, (4-(1-cyclopropyl-1H-1,2,4-triazol-5-yl)phenyl)((3R,4R)-4-(3,4-dihydroisoquinolin-2(1H)-yl)-3-hydroxypiperidin-1-yl)methanone]	> 10000 nM	–	–	2550 nM
CC(=O)N1CCC(Nc2cc(C(=O)N3CCC(N4Cc5ccccc5C(F)(F)C4)C(O)C3)c(F)cn2)CC1 (single isomer, unassigned) [Example 27, 1-(4-((5-fluoro-4-(-4-(4,4-difluoro-3,4-dihydroisoquinolin-2(1H)-yl)-3-hydroxypiperidine-1-carbonyl)pyridin-2-yl)amino)piperidin-1-yl)ethan-1-one]	> 10000 nM	–	–	809 nM
CC1OC(=O)Nc2cc(C(=O)N3CC[C@H](N4CCc5ccccc5C4)[C@@H](O)C3)ccc21 (single isomer, unassigned) [Example 91]	7530 nM	127 nM	70800 nM	–
CC1OC(=O)Nc2cc(C(=O)N3CC[C@H](N4CCc5ccccc5C4)[C@@H](O)C3)c(F)cc21 (single isomer, unassigned) [Example 100]	15 nM	4.8 nM	1720 nM	–
CC(=O)N1CCC(Nc2cc(C(=O)N3CC[C@H](N4CCc5ccccc5C4)[C@@H](O)C3)c(F)cn2)C(F)(F)C1 (single isomer, unassigned) [Example 87]	59 nM	8.6 nM	7240 nM	–
O=C(c1ccc(C(=O)N2C3CCC2COC3)cc1)N1CC[C@H](N2CCc3ccc(F)cc3C2)[C@@H](O)C1 [Example 41, (4-(3-oxa-8-azabicyclo[3.2.1]octane-8-carbonyl)phenyl)((3S,4S)-4-(7-fluoro-3,4-dihydroisoquinolin-2(1H)-yl)-3-hydroxypiperidin-1-yl)methanone]	1490 nM	19 nM	8110 nM	–
CC(=O)N1CCC(Nc2nccc(C(=O)N3CC[C@@H](N4CCc5ccccc5C4)[C@H](O)C3)c2F)C(F)(F)C1 (single isomer, unassigned) [Example 16]	5730 nM	160 nM	83200 nM	–
O=C(c1ccc(OCC(F)(F)F)nc1)N1CCC(N2Cc3ccccc3C(F)(F)C2)C(O)C1 (single isomer, unassigned) [Example 29, (-4-(4,4-difluoro-3,4-dihydroisoquinolin-2(1H)-yl)-3-hydroxypiperidin-1-yl)(6-(2,2,2-trifluoroethoxy)pyridin-3-yl)methanone]	> 10000 nM	–	–	1340 nM
Cc1ccc2c(c1)CN(C1CCN(C(=O)c3ccc(OCC(F)(F)F)nc3)CC1O)CC2 (single isomer, unassigned) [Example 48, ((3S,4S or 3R,4R)-3-hydroxy-4-(7-methyl-3,4-dihydroisoquinolin-2(1H)-yl)piperidin-1-yl)(6-(2,2,2-trifluoroethoxy)pyridin-3-yl)methanone]	> 10000 nM	–	–	17800 nM
O=C(c1ccc(OCC(F)(F)F)nc1)N1CC[C@H](N2CCc3ccccc3C2)[C@@H](O)C1 [Example 43, ((3S,4S)-4-(3,4-dihydroisoquinolin-2(1H)-yl)-3-hydroxypiperidin-1-yl)(6-(2,2,2-trifluoroethoxy)pyridin-3-yl)methanone]	441 nM	3.7 nM	3200 nM	–
CC(=O)N1CCC(Nc2cc(C(=O)N3CCC(N4CCc5ccccc5C4)C(O)C3C)ccn2)CC1 (single isomer, unassigned) [Example 21, 1-(4-((4-(4-(3,4-dihydroisoquinolin-2(1H)-yl)-3-hydroxy-2-methylpiperidine-1-carbonyl)pyridin-2-yl)amino)piperidin-1-yl)ethan-1-one]	1580 nM	~56 nM	25400 nM	–
O=C(c1cn2c(n1)CCC(C(F)(F)F)C2)N1CC[C@H](N2CCc3ccccc3C2)[C@@H](O)C1 (single isomer, unassigned) [Example 83]	365 nM	12 nM	9550 nM	–

— US12595248B2, “PRMT5 inhibitors” (Merck Sharp & Dohme LLC, priority 2019, dated 2026)
